Data as given in patent publication US8101766B2, “Crystalline form of a biphenyl compound” (Theravance, Inc., priority 2004, dated 2012).

Legend:
hM1 receptor = target: T1, hM1 receptor (Homo sapiens, UniProt P11229); assay: Blockade of agonist-mediated calcium release via FLIPR assay (hM1); type: cell-based; settings: CHO cells stably expressing hM1
T1 construct: expressed in transfected cells
T1 sequence (P11229 1-460): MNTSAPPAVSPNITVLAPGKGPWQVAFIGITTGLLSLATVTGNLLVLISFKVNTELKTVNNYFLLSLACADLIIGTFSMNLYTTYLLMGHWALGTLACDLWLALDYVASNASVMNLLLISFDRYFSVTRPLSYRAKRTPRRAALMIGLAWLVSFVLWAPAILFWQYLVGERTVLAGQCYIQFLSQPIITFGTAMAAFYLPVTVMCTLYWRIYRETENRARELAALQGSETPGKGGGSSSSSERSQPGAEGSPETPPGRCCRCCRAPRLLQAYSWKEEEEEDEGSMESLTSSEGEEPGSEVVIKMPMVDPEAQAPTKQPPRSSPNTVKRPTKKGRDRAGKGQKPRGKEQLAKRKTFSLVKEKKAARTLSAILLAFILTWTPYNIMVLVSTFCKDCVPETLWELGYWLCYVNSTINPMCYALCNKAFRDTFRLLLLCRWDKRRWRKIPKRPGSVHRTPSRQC
Excerpt: B. Blockade of Agonist-Mediated Calcium Release Via FLIPR Assays
Muscarinic receptor subtypes (M1, M3 and M5 receptors), which couple to Gq proteins, activate the phospholipase C (PLC) pathway upon agonist binding to the receptor. As a result, activated PLC hydrolyzes phosphatyl inositol diphosphate (PIP2) to diacylglycerol (DAG) and phosphatidyl-1,4,5-triphosphate (IP3), which in turn generates calcium release from intracellular stores, i.e., endoplasmic and sarcoplasmic reticulum. […] This fluorescence event is measured in real time by the FLIPR, which detects the change in fluorescence from a monolayer of cells cloned with human M1 and M3, and chimpanzee M5 receptors. Antagonist potency can be determined by the ability of antagonists to inhibit agonist-mediated increases in intracellular calcium. […]
To determine antagonist potency, the dose-dependent stimulation of intracellular Ca^2+ release for oxotremorine was first determined so that antagonist potency can later be measured against oxotremorine stimulation at an EC90 concentration. […]
The parameters used for the FLIPR were: exposure length of 0.4 seconds, laser strength of 0.5 watts, excitation wavelength of 488 nm, and emission wavelength of 550 nm. Baseline was determined by measuring the change in fluorescence for 10 seconds prior to addition of agonist. […]

[1] = target: T2, human M2 muscarinic receptor (Homo sapiens, UniProt P08172); assay: Radioligand binding assay for muscarinic receptors (hM2); settings: [3H]-NMS displacement, CHO cell membranes
T2 construct: expressed in transfected cells
T2 sequence (P08172 1-466): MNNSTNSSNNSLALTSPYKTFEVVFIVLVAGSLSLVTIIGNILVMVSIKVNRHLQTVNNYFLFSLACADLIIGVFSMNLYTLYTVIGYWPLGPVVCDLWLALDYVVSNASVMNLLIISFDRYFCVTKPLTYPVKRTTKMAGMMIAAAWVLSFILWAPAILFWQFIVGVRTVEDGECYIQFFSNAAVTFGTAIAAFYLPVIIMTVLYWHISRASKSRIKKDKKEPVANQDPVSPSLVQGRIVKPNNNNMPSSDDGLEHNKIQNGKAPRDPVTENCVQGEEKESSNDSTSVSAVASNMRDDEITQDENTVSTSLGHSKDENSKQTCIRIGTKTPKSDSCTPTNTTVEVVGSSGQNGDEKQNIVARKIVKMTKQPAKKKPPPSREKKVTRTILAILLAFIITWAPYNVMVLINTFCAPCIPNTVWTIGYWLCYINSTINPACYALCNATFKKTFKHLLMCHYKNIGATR
Method: The cells were grown in a 5% CO2, 37° C. incubator and lifted with 2 mM EDTA in dPBS. Cells were collected by 5 minute centrifugation at 650×g, and cell pellets were either stored frozen at −80° C. or membranes were prepared immediately for use. For membrane preparation, cell pellets were resuspended in lysis buffer and homogenized with a Polytron PT-2100 tissue disrupter (Kinematica AG; 20 seconds×2 bursts). Crude membranes were centrifuged at 40,000×g for 15 minutes at 4° C. The membrane pellet was then resuspended with re-suspension buffer and homogenized again with the Polytron tissue disrupter. […] All membranes were stored frozen in aliquots at −80° C. or used immediately.
The membranes were briefly homogenized using a Polytron tissue disruptor (10 seconds) prior to assay plate addition. […] Filter plates were rinsed three times with wash buffer (10 mM HEPES) to remove unbound radioactivity. […] Binding data were analyzed by nonlinear regression analysis with the GraphPad Prism Software package (GraphPad Software, Inc., San Diego, Calif.) using the one-site competition model.

β2 adrenergic receptor = β2 adrenergic receptor (Homo sapiens, UniProt P07550); assay: Whole-cell cAMP Flashplate assay in CHO cell lines heterologously expressing human β2 adrenergic receptor; type: cell-based; parameters: expressed in transfected cells; settings: CHO-K1 cells expressing cloned human β2
Chain of β2 adrenergic receptor (P07550 whole entry): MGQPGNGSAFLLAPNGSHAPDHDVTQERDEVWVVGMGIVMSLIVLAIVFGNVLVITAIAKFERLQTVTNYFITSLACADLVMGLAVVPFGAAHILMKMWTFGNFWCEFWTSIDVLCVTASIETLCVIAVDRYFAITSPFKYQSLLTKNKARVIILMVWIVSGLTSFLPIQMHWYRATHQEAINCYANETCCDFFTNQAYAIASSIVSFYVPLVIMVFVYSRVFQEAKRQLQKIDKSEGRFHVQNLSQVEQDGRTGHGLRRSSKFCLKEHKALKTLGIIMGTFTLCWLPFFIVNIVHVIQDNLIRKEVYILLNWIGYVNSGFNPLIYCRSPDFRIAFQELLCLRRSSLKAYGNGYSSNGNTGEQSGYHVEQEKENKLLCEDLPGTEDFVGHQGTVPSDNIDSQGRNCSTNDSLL
Method: Cells were rinsed with PBS and detached in dPBS (Dulbecco's Phosphate Buffered Saline, without CaCl2 and MgCl2) containing 2 mM EDTA or Trypsin-EDTA solution (0.05% trypsin/0.53 mM EDTA). […] Test compounds (10 mM in DMSO) were diluted into PBS containing 0.1% BSA in Beckman Biomek-2000 and tested at 11 different concentrations ranging from 100 μM to 1 pM. […] Data were analyzed by nonlinear regression analysis with the GraphPad Prism Software package (GraphPad Software, Inc., San Diego, Calif.) with the sigmoidal equation.

COc1cc(NC(=O)CCN2CCC(OC(=O)Nc3ccccc3-c3ccccc3)CC2)c(Cl)cc1CNC[C@H](O)c1ccc(O)c2[nH]c(=O)ccc12 [compound of formula I, biphenyl-2-ylcarbamic acid 1-[2-(2-chloro-4-{[(R)-2-hydroxy-2-(8-hydroxy-2-oxo-1,2-dihydroquinolin-5-yl)ethylamino]methyl}-5-methoxyphenylcarbamoyl)ethyl]piperidin-4-yl ester]
< 10 nM: Ki (hM1 receptor) | Ki [1] | EC50 (β2 adrenergic receptor)
